Measurements from patent US10258701B2, “Labeled evans blue dye derivative for in vivo serum albumin labeling” (The United States of America, as represented by the …, priority 2015, dated 2019).
Like-named read-outs stand apart in the source and are kept apart here.

What was measured:
[1] = system: lymph nodes; experiment: Amount of EB dye in lymph nodes after local co-injection of 18F-AlF-NEB and EB; conditions: ex vivo
Experimental: Ninety min after local injection, both popliteal LN sites could be distinguished clearly by the apparent blue color, indicating the local accumulation of the dye molecules. The left sciatic LNs could also be seen but with much lower uptake of dye (FIGS. 19A and 19B). There was significant difference in weight between the popliteal LNs on the tumor side and the contralateral side but not between the sciatic LNs (popliteal LNs: 3.582±0.762 vs. 1.995±0.759 mg, p<0.05; sciatic LNs: 1.558±0.731 vs. 1.403±0.632 mg, p>0.05) (FIG. 20). […] However, there was no difference in the amount of EB between two sciatic LNs (0.030±0.008 μg vs. 0.028±0.015 μg, p>0.05). These ex vivo results were consistent with in vivo PET data.

[2] = biological target: albumin (Homo sapiens, UniProt P02768); experiment: Absorbance and fluorescence emission of Evans blue with and without albumin; type: physicochemical
Sequence of albumin (P02768 25-609, species assumed): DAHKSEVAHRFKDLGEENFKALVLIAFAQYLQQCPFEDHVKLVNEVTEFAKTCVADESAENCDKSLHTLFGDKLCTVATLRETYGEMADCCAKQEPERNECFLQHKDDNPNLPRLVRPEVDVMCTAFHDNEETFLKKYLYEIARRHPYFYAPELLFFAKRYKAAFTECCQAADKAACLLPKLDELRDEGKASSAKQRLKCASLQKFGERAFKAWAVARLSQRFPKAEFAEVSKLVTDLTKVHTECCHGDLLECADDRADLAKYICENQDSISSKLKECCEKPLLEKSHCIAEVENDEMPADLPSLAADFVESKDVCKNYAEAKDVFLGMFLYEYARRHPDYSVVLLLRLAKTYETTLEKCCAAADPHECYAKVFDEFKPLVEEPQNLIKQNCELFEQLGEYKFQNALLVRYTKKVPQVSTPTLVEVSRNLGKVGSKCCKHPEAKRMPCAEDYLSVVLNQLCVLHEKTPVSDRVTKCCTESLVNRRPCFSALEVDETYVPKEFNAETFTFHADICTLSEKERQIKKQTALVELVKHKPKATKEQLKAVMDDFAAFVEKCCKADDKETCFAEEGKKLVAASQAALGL
From the text: FIGS. 1A and 1B show the absorbance and fluorescence emission of Evans blue with and without albumin. […] Evans blue is almost not fluorescent without albumin.
After forming a complex with serum albumin, both NEB and EB became fluorescent. Since only trace amount of NEB was mixed with EB, the majority of the fluorescence came from EB. […] With optical imaging, the migration of the injected EB/NEB in lymphatics could be clearly observed after local injection. The fluorescence signal first reached the popliteal LN then migrated to the sciatic LN (FIG. 22). Ninety min after tracer injection, both LNs were clearly visualized by fluorescence optical imaging. Under bright light, apparent blue dye accumulation could also be seen by the naked eye (FIGS. 23A and 23B). PET and optical imaging were also performed with the same animal after injection of ^18F-AlF-NEB/EB. An overlay of the two images provided high positional correlation of the LNs (FIGS. 24A and 24B).

[3] = system: platelet aggregation; conditions: cited from earlier work
[4] = system: UM-22B tumors; set-up: species or system mice; conditions: female, athymic nude, mouse, in vivo
Experimental: All animal studies were conducted in accordance with the principles and procedures outlined in the Guide for the Care and Use of Laboratory Animals and were approved by the Institutional Animal Care and Use Committee of the Clinical Center, NIH. The UM-22B human head and neck carcinoma cancer cell line was grown in DMEM medium supplemented with 10% fetal bovine serum (FBS), 100 IU/mL penicillin, and 100 μg/mL streptomycin (Invitrogen), and in a humidified atmosphere containing 5% CO2 at 37° C. The tumor model was developed in 5 to 6 week old female athymic nude mice (Harlan Laboratories) by injection of 5×10^6 cells into their right shoulders. The mice underwent small-animal PET studies when the tumor volume reached 100-300 mm^3 (2-3 weeks after inoculation).
PET scans and image analysis were performed using an Inveon small animal PET scanner (Siemens Medical Solutions). About 3.7 MBq of ^18F-AlF-NEB or ^18F-FB-Albumin or 7.4 MBq of ^64Cu-NEB was administered via tail vein injection under isoflurane anesthesia. For normal mice, 60-min dynamic PET scans were acquired. For tumor mice, 60-min dynamic PET scans were acquired, followed by a series of late time point scans at 2, 4, and 24 h (^64Cu only) after tracer injection. With acute inflammation model, 5-min static PET images were acquired at 30 min, 1 h and 2 h postinjection (n=3-5 per group). The images were reconstructed using a two-dimensional ordered-subset expectation maximum (2D OSEM) algorithm, and no correction was applied for attenuation or scatter. For each scan, regions of interest (ROIs) were drawn using vendor software (ASI Pro 5.2.4.0) on decay-corrected whole-body coronal images. The radioactivity concentrations (accumulation) within the heart, muscle, liver, and kidneys were obtained from mean pixel values within the multiple ROI volume and then converted to MBq per milliliter. These values were then divided by the administered activity to obtain (assuming a tissue density of 1 g/ml) an image-ROI-derived percent injected dose per gram (% ID/g).
Malignant tumors are characterized by torturous blood vessels and high vascular permeability. Besides, the anti-angiogenesis and “normalization” of tumor vasculature have been intensively investigated. Unlike radiolabeled RBCs, albumin can be used to study vascular permeability in tumors. NEB was labeled with ^64Cu, a positron emitter with longer half-life (t1/1=12.6 h) than ^18F (t1/2=109.8 min). A UM-22B xenograft model was developed and performed 60-min dynamic scan and then static scans at late time points up to 24 h. The in vivo distribution of ^64Cu-NEB was very similar to that of ^18F-AlF-NEB with most of radioactivity retained in the circulation system (FIG. 4A). Even at 4 h after tracer injection, radioactivity within heart region and major vessels was still dominant. […] At 24 h after tracer injection, the tumor uptake was still at a relatively high level (8.07±1.01% ID/g). The tracer uptake over the heart region was 16.09±0.51% ID/g at 1 h p.i., which dropped to 8.58±0.81% ID/g at 24 h (FIG. 5B).

[5] = human, in vivo
Experimental: A dosimetry study was also performed based on the PET imaging data.

[6] = ninety min after local injection

Compound | amount of EB in sciatic LNs, first value of the pair ([1]; presumably left side) | amount of EB in sciatic LNs, second value of the pair ([1]; presumably right side) | amount of EB dye in left popliteal LNs [1, 6] | amount of EB dye in right popliteal LNs [1, 6] | fluorescence emission peak ([2]; only with albumin) | absorbance peak ([2]; with or without albumin) | threshold concentration for induction of platelet aggregation [3] | tracer uptake over the heart region ([4]; 1 h) | tumor uptake ([4]; 1 h) | tumor uptake ([4]; 2 h) | tracer uptake over the heart region ([4]; 24 h) | tumor uptake ([4]; 24 h) | absorbed dose, red bone marrow [5]
Cc1cc(-c2ccc(/N=N/c3ccc4c(S(=O)(=O)O)cc(S(=O)(=O)O)c(N)c4c3O)c(C)c2)ccc1/N=N/c1ccc2c(S(=O)(=O)O)cc(S(=O)(=O)O)c(N)c2c1O [EB, Evans blue] | 0.030 ± 0.008 µg | 0.028 ± 0.015 µg | 0.144 ± 0.034 µg | 0.091 ± 0.029 µg | 680 nm | 620 nm | about 100 μM |  |  |  |  |  | 
Cc1cc(-c2ccc(NC(=O)CN3CCN4CCN(CC3)CC(=O)[O][64Cu][O]C(=O)C4)c(C)c2)ccc1N=Nc1ccc2c(S(=O)(=O)O)cc(S(=O)(=O)O)c(N)c2c1O [^64Cu-NEB] |  |  |  |  |  |  |  | 16.09±0.51 % ID/g | 5.73±1.11 % ID/g | 8.03±0.77 % ID/g | 8.58±0.81 % ID/g | 8.07±1.01 % ID/g | 6.14 mSv
